The test system of series [1] is PC-3 (human prostate cancer cell). Description: In vitro antitumor activity, CellTiter-Glo cell viability, 48 h. The conditions noted are these: read-out: Relative IC50 (μM) PC-3. Format: cell-based. Here is the method:
(§1) Tumor cells included AsPC-1 (human pancreatic cancer cell), PC-3 (human prostate cancer cell), and SK-OV-3 (human ovarian cancer cell).
(§2) Triptolide was used as a positive control; the working concentrations of the test drug were 1 μM, 0.33 μM, 0.11 μM, […], 0.012 μM, 0.004 μM, 1.4 nM, and 0.46 nM. After the tumor cells were revived, they were resuspended in the corresponding complete medium, placed in 5% CO2, and cultured at 37° C. The tumor cells at the logarithmic growth stage were suspended in the corresponding complete medium to adjust the cell concentration. 90 μL of cell suspension was added into each well. The cells were incubated at 37° C. in 5% CO2 overnight. Each concentration of the test drug was added and the cells were further cultured for 48 hours. Finally. Promega CellTiter-Glo Luminescent Cell Viability Assay Kit was used for detection.

Series [2] deals with AsPC-1 (human pancreatic cancer cell). The description is as above. Conditions: read-out: Relative IC50 (μM) AsPC-1. The format is cell-based. Here is the method:
as §1, §2

The subject of series [3] is SK-OV-3 (human ovarian cancer cell). The series is described as above. Conditions: read-out: Relative IC50 (μM) SK-OV-3. The format is cell-based. The method, then:
as §1, §2

The subject of series [4] is mouse B lymphocytes induced by LPS. Description: In vitro immunosuppressive activity, spleen lymphocyte proliferation (3H-thymidine), LPS-induced. Format: cell-based, BALB/c mice. The conditions noted are these: read-out: IC50 (μM) mouse B lymphocytes induced by LPS. The method, then: (§3) Preparation of Mouse Spleen Lymphocyte
(§4) BALB/c mice were sacrificed by spinal dislocation, and their spleen was aseptically taken out. A single cell suspension was prepared and adjusted to the required concentration.
(§5) A suspension of 4×10^6 cells/ml spleen lymphocytes was routinely prepared and 100 μL of cells was added into each well of a 96-well plate. 50 μL test sample in different concentrations was added and ConA (final concentration 5 μg/mL) was added to induce T lymphocyte activation and proliferation, or LPS (final concentration 10 μg/mL) (50 μL) was added to induce B lymphocyte activation and proliferation. The corresponding positive control and non-stimulating background control were set. The cells were cultured in 37° C., 5% CO2 incubator for 48 h. 0.25 μCi ^3H-thymidine was introduced and the cultivation was completed after 8 h. At the end of the cultivation, the culture plate was frozen at −20° C. in a freezer until measurement. The cells were collected on a glass fiber membrane with a cell harvester and then scintillation solution was added. The amount of ^3H-thymine nucleotides incorporated into the cells' DNA was read on a Beta counter. The cell proliferation was represented by the cpm value.

Series [5] concerns mouse T lymphocytes induced by ConA. Description: In vitro immunosuppressive activity, spleen lymphocyte proliferation (3H-thymidine), ConA-induced. The format is cell-based, BALB/c mice. The conditions noted are these: read-out: IC50 (μM) mouse T lymphocytes induced by ConA. Here is the method:
as §3, §4, §5

A short description of series [6]: Body weight, mortality and toxicity in AsPC-1 tumor-bearing nude mice. Conditions: emulsions. The format is in vivo, male nude mice. The method, then: Human pancreatic cancer cell AsPC-1 was subcutaneously inoculated on the right abdominal side of male nude mice. Tumor-bearing mice were randomly divided into 5 groups: negative control group (Control, n=8, blank emulsion, i.p./i.v., qd); Triptolide group (Triptolide, n=8, 0.25 mg/kg, i.v., qd); positive control group (Gemcitabine, n=8, 50 mg/kg, i.p., tiw); CK21S-005 emulsion group (CK21S-005 emulsion, n=8, 5 mg/kg, i.p./i.v., qd); and CK21S-005 emulsion group (CK21S-005 emulsion, n=8, 2.5 mg/kg, i.p./i.v., qd). Mice were administered in groups until the end of the experiment. The changes in tumor size and tumor-bearing mouse weight over time were monitored during the 2-week administration period, and tumors were weighed at the end of the experiment to comprehensively evaluate the inhibitory effect of the drug CK21S-005 on tumor growth.
The preparation method of the emulsion was as follows. A prescribed amount of injection oil was weighed and heated to 70-90° C. A prescribed amount of raw material was weighed, dispersed in the oil phase and completely dissolved under shear-stirring to form an oil phase. A prescribed amount of injection water was weighed and heated to 70° C. A prescribed amount of phospholipid, co-emulsifier, glycerin, etc. were added and dispersed under shear to form an aqueous phase. […]

Where [7] appears, read: ASPC1, AsPC-1, 48 hours, CellTiter-Glo.
[8] abbreviates: SK-OV-3, 48 hours, CellTiter-Glo.
Setting [9] is: LPS 10 μg/mL, 48 h, 3H-thymidine.
[10] abbreviates: ConA 5 μg/mL, 48 h, 3H-thymidine.

Like-named read-outs stand apart in the source and are kept apart here.

One may read the IC50 as the concentration at which inhibition is half-maximal.

Consider `CC(C)[C@]12O[C@H]1[C@@H]1O[C@]13[C@]1(O[C@H]1C[C@H]1C4=C(CC[C@@]13C)C(=O)O/C4=C(/OC(=O)c1ccc(C(F)(F)F)cc1)c1ccc(C(F)(F)F)cc1)[C@@H]2OC(=O)OC(C)(C)C` [CK21S-003-b], for which the half-maximal inhibitory concentration (IC50) worked out at 0.021 µM in series [1] (48 h); 0.02 µM in series [2] (ASPC1, 48 h); 0.029 µM in series [3] (SK-OV-3, 48 h); 0.005 µM in series [4]; 0.006 µM in series [5].
In the case of `CC(C)[C@]12O[C@H]1[C@@H]1O[C@]13[C@]1(O[C@H]1C[C@H]1C4=C(CC[C@@]13C)C(=O)OC4)[C@@H]2O` [Triptolide, triptolide], the IC50 in series [1] (PC-3, 48 hours, CellTiter-Glo) was 0.014 µM; in series [2] (setting [7]), 0.014 µM; in series [3] (setting [8]) it was 0.016 µM; in series [4] (setting [9]) it was 0.004 µM; in series [5] (setting [10]), 0.005 µM.
As to `CC(C)[C@]12O[C@H]1[C@@H]1O[C@@]13[C@@]1(C)CCC4=C(/C(=C(\OC(=O)c5ccccc5)c5ccccc5)OC4=O)[C@@H]1C[C@@H]1O[C@@]13C2=O` [CK21S-007], the IC50 in series [1] (PC-3, 48 hours, CellTiter-Glo) is 0.043 µM; in series [2] (setting [7]), 0.049 µM; in series [3] (setting [8]) it was 0.05 µM; in series [4] (setting [9]) it was 0.017 µM; in series [5] (setting [10]), 0.015 µM.
For `CC(C)[C@]12O[C@H]1[C@@H]1O[C@]13[C@]1(O[C@H]1C[C@H]1C4=C(CC[C@@]13C)C(=O)O/C4=C(/OC(=O)c1ccccc1)c1ccccc1)[C@@H]2OCOP(=O)(O)O` [CK21S-009] the same measures were 0.027 µM, 0.03 µM, 0.032 µM, 0.008 µM and 0.008 µM.
Consider `CC(C)[C@]12O[C@H]1[C@@H]1O[C@]13[C@]1(O[C@H]1C[C@H]1C4=C(CC[C@@]13C)C(=O)O/C4=C(/OC(=O)c1ccco1)c1ccco1)[C@@H]2OC(=O)OC(C)(C)C` [CK21S-004-b], for which the half-inhibitory concentration (IC50) in series [1] (48 h) came out at 0.045 µM; in series [2] (ASPC1, 48 h), 0.096 µM; in series [3] (SK-OV-3, 48 h) it was 0.129 µM; in series [4], 0.025 µM; in series [5] it was 0.03 µM.
As to `CC(C)[C@]12O[C@H]1[C@@H]1O[C@]13[C@]1(O[C@H]1C[C@H]1C4=C(CC[C@@]13C)C(=O)O/C4=C(/OC(=O)c1ccco1)c1ccccc1)[C@@H]2O` [CK21S-001], the IC50 amounted to 0.022 µM in series [1] (PC-3, 48 hours, CellTiter-Glo); 0.028 µM in series [2] (setting [7]); 0.042 µM in series [3] (setting [8]); 0.006 µM in series [4] (setting [9]); 0.008 µM in series [5] (setting [10]).
Taken in the same sequence, the figures for `CC(C)[C@]12O[C@H]1[C@@H]1O[C@@]13[C@@]1(C)CCC4=C(/C(=C(\OC(=O)c5ccccc5)c5ccccc5)OC4=O)[C@@H]1C[C@@H]1O[C@@]13C2F` (stereo partly drawn) [CK21S-008] were 0.03 µM, 0.035 µM, 0.038 µM, 0.009 µM and 0.01 µM.
Taken in the same sequence, the figures for `CC(C)[C@]12O[C@H]1[C@@H]1O[C@]13[C@]1(O[C@H]1C[C@H]1C4=C(CC[C@@]13C)C(=O)O/C4=C(/OC(=O)c1ccco1)c1ccco1)[C@@H]2O` [CK21S-004] were 0.023 µM, 0.038 µM, 0.118 µM, 0.009 µM and 0.012 µM.
Take `CC(C)[C@]12O[C@H]1[C@@H]1O[C@]13[C@]1(O[C@H]1C[C@H]1C4=C(CC[C@@]13C)C(=O)O/C4=C(/OC(=O)C1CCCCC1)c1ccccc1)[C@@H]2OC(=O)OC(C)(C)C` [CK21S-006-b]: the IC50 in series [1] (48 h) was found to be 0.034 µM; in series [2] (ASPC1, 48 h), 0.036 µM; in series [3] (SK-OV-3, 48 h) it was 0.045 µM; in series [4], 0.015 µM; in series [5] it was 0.016 µM.
For `CC(C)[C@]12O[C@H]1[C@@H]1O[C@]13[C@]1(O[C@H]1C[C@H]1C4=C(CC[C@@]13C)C(=O)O/C4=C(/OC(=O)c1ccco1)c1ccccc1)[C@@H]2OC(=O)OC(C)(C)C` [CK21S-001-b] the same measures were 0.029 µM, 0.03 µM, 0.048 µM, 0.01 µM and 0.011 µM.
Turning to `CC(C)[C@]12O[C@H]1[C@@H]1O[C@]13[C@]1(O[C@H]1C[C@H]1C4=C(CC[C@@]13C)C(=O)O/C4=C(/OC(=O)c1ccccc1)c1ccccc1)[C@@H]2O` [CK21S-005], the “Safety compared with triptolide” value in series [6] was “better than that of triptolide”. The IC50 in series [1] (48 h) worked out at 0.03 µM; in series [2] (ASPC1, 48 h) it was 0.04 µM; in series [3] (SK-OV-3, 48 h), 0.041 µM; in series [4] it was 0.01 µM; in series [5], 0.012 µM.
`CC(C)[C@]12O[C@H]1[C@@H]1O[C@]13[C@]1(O[C@H]1C[C@H]1C4=C(CC[C@@]13C)C(=O)O/C4=C(/OC(=O)C1CCCCC1)c1ccccc1)[C@@H]2O` [CK21S-006]: the IC50 in series [1] (PC-3, 48 hours, CellTiter-Glo) was determined as 0.031 µM; in series [2] (setting [7]), 0.035 µM; in series [3] (setting [8]), 0.041 µM; in series [4] (setting [9]), 0.008 µM; in series [5] (setting [10]), 0.01 µM.
On to `CC(C)[C@]12O[C@H]1[C@@H]1O[C@]13[C@]1(O[C@H]1C[C@H]1C4=C(CC[C@@]13C)C(=O)O/C4=C(/OC(=O)c1ccccc1)c1ccccc1)[C@@H]2OC(=O)OC(C)(C)C` [CK21S-005-b], for which the IC50 in series [1] (PC-3, 48 hours, CellTiter-Glo) turned out to be 0.035 µM; in series [2] (setting [7]), 0.042 µM; in series [3] (setting [8]) it was 0.04 µM; in series [4] (setting [9]), 0.009 µM; in series [5] (setting [10]), 0.011 µM.
For `COc1ccc(C(=O)O/C(=C2/OC(=O)C3=C2[C@@H]2C[C@@H]4O[C@@]45[C@H](O)[C@@]4(C(C)C)O[C@H]4[C@@H]4O[C@@]45[C@@]2(C)CC3)c2ccc(OC)cc2)cc1` [CK21S-002], the IC50 in series [1] (PC-3, 48 hours, CellTiter-Glo) was 0.056 µM; in series [2] (setting [7]), 0.071 µM; in series [3] (setting [8]), 0.07 µM; in series [4] (setting [9]) it was 0.02 µM; in series [5] (setting [10]) it was 0.021 µM.
Taken in the same sequence, the figures for `CC(C)[C@]12O[C@H]1[C@@H]1O[C@]13[C@]1(O[C@H]1C[C@H]1C4=C(CC[C@@]13C)C(=O)O/C4=C(/OC(=O)c1ccc(C(F)(F)F)cc1)c1ccc(C(F)(F)F)cc1)[C@@H]2O` [CK21S-003] were 0.018 µM, 0.014 µM, 0.028 µM, 0.004 µM and 0.006 µM.
As to `COc1ccc(C(=O)O/C(=C2/OC(=O)C3=C2[C@@H]2C[C@@H]4O[C@@]45[C@H](OC(=O)OC(C)(C)C)[C@@]4(C(C)C)O[C@H]4[C@@H]4O[C@@]45[C@@]2(C)CC3)c2ccc(OC)cc2)cc1` [CK21S-002-b], the IC50 in series [1] (48 h) came out at 0.042 µM; in series [2] (ASPC1, 48 h) it was 0.042 µM; in series [3] (SK-OV-3, 48 h), 0.057 µM; in series [4], 0.01 µM; in series [5] it was 0.012 µM.

For the origin of these results see patent US11407783B2, “Triptolide derivative and preparation method therefor and use thereof” (priority 2018, dated 2022).
